Experiment: P450/hemin reactions with azide 8 under anaerobic conditions (C—H amination)
Assay type: biochemical
Source text: Benzosultam 9 (a), arylsulfonamide 13 (c), alcohol 14 (b), alkene 15 and dimer 16 (d) are defined in FIG. 13. […] B1SYN (e.g., P450BM3 with 23 amino acid substitutions) catalyzed about 45 TTN for form the benzosultam.
Small-Scale Amination Reactions Under Anaerobic Conditions.
Reaction conditions were as described herein and analyzed by reverse-phase LC-MS (Agilent 1100 series LC-MSD), acetonitrile-water, using a C18 column (Peeke Scientific, Kromasil 100 5 μm, 50×4.6 mm ID). Acetonitrile gradient for 2-isopropylbenzenesulfonyl azide reactions: 10-22% (8 min), 22-60% (10 min), 60% (2 min), at 1.5 mL min^−1. Retention times: alcohol 10 (6.3 min), sulfonamide 2 (10.6 min), dimer 4 (12.3 min), azide 1 (17.6 min).

hemin
TTN arylsulfonamide 13 (1 mol %, 2 mM NADPH): 1 | TTN benzosultam 9 (1 mol %, 2 mM NADPH): 0 | arylsulfonamide 13 (% yield) (1 mol %, 2 mM NADPH): (1) % | TTN arylsulfonamide 13 (1 mol %, 2 mM Na2S2O4): 1 | TTN benzosultam 9 (1 mol %, 2 mM Na2S2O4): 4 | arylsulfonamide 13 (% yield) (1 mol %, 2 mM Na2S2O4): (1) % | benzosultam 9 (% yield) (1 mol %, 2 mM Na2S2O4): (4) % | TTN arylsulfonamide 13 (1 mol %, 10 mM Na2S2O4): 23 | TTN benzosultam 9 (1 mol %, 10 mM Na2S2O4): 61 | arylsulfonamide 13 (% yield) (1 mol %, 10 mM Na2S2O4): (23) % | benzosultam 9 (% yield) (1 mol %, 10 mM Na2S2O4): (61) % | TTN arylsulfonamide 13 (1 mol %, reductant None): 0 | TTN benzosultam 9 (1 mol %, reductant None): 0 | TTN arylsulfonamide 13 (10 mol %, 2 mM Na2S2O4): 0 | TTN benzosultam 9 (10 mol %, 2 mM Na2S2O4): 0 | TTN arylsulfonamide 13 (10 mol %, 10 mM Na2S2O4): 3 | TTN benzosultam 9 (10 mol %, 10 mM Na2S2O4): 4 | arylsulfonamide 13 (% yield) (10 mol %, 10 mM Na2S2O4): (30) % | benzosultam 9 (% yield) (10 mol %, 10 mM Na2S2O4): (40) %
